This note sets out measurements from patent US7820623B2 (priority 2006, dated 2010).

The subject of assay [1] is thapsigargin-induced IL-2 production in human whole blood.
Assay [2] concerns thapsigargin-induced IFN-g production in human whole blood. In kind it is cell-based.
Where [3] appears, read: read-out: Analogue Activity (IC50) WB/IL-2.
Setting [4] is: read-out: Analogue Activity (IC50) WB/IFNg.

pIC50: −log10 of the molar value. Read-outs that look alike come from different tables or passages of the source. Bridge positions count the residues as written; N and C are the ends. Square brackets hold non-standard residues; d marks the D form. Peptide text beside a SMILES is read from it. 1Nal = N[C@@H](Cc1cccc2ccccc12)C(=O)O

As to “GVIINVKCKISRQCLEPCKKAGMRFGKCMAGKCHCTPK [Ala-30 (SEQ ID No: 1425)]”, the pIC50 in assay [1] (read-out: Average IC50 IL-2) was 9.01; in assay [2] (read-out: Average IC50 IFNg) it was 9.20.
On to `CC[C@H](C)[C@@H]1NC(=O)[C@H](CCCCN)NC(=O)[C@@H](NC(=O)[C@H](CCCCN)NC(=O)[C@@H](NC(=O)[C@H](CC(N)=O)NC(=O)[C@@H](NC(=O)[C@@H](NC(=O)[C@@H](NC(=O)CN)C(C)C)[C@@H](C)CC)[C@@H](C)CC)C(C)C)CSSC[C@@H]2NC(=O)[C@H](CCCCN)NC(=O)CNC(=O)[C@H](CCCNC(=N)N)NC(=O)[C@H](CCCNC(=N)N)NC(=O)[C@H](CCSC)NC(=O)CNC(=O)[C@H](C)NC(=O)[C@H](CCCCN)NC(=O)[C@H](CCCCN)NC(=O)[C@@H]3CSSC[C@@H](C(=O)N[C@H](C(=O)N4CCC[C@H]4C(=O)N[C@@H](CCCCN)C(=O)O)[C@@H](C)O)NC(=O)[C@H](Cc4c[nH]cn4)NC(=O)[C@H](CSSC[C@H](NC(=O)[C@H](CCC(N)=O)NC(=O)[C@H](CCCNC(=N)N)NC(=O)[C@H](CO)NC1=O)C(=O)N[C@@H](CC(C)C)C(=O)N[C@@H](CCC(=O)O)C(=O)N1CCC[C@H]1C(=O)N3)NC(=O)[C@H](CCCCN)NC(=O)CNC(=O)[C@H](CC(N)=O)NC(=O)[C@H](CCSC)NC2=O` [F25R] (H-GVIINVKCKISRQCLEPCKKAGMRRGKCMNGKCHCTPK-OH; disulfide 8-28, 14-33, 18-35), for which the results for the pIC50 in assay [1] (setting [3]) and in assay [2] (setting [4]) were 7.60 and 7.51, respectively.
As to `CC[C@H](C)[C@@H]1NC(=O)[C@H](CCCCN)NC(=O)[C@@H](NC(=O)[C@H](CCCCN)NC(=O)[C@@H](NC(=O)[C@H](CC(N)=O)NC(=O)[C@@H](NC(=O)[C@@H](NC(=O)[C@@H](NC(=O)CN)C(C)C)[C@@H](C)CC)[C@@H](C)CC)C(C)C)CSSC[C@@H]2NC(=O)[C@H](CCCNC(=N)N)NC(=O)CNC(=O)[C@H](Cc3ccccc3)NC(=O)[C@H](CCCNC(=N)N)NC(=O)[C@H](CCSC)NC(=O)CNC(=O)[C@H](C)NC(=O)[C@H](CCCCN)NC(=O)[C@H](CCCCN)NC(=O)[C@@H]3CSSC[C@@H](C(=O)N[C@H](C(=O)N4CCC[C@H]4C(=O)N[C@@H](CCCCN)C(=O)O)[C@@H](C)O)NC(=O)[C@H](Cc4c[nH]cn4)NC(=O)[C@H](CSSC[C@H](NC(=O)[C@H](CCC(N)=O)NC(=O)[C@H](CCCNC(=N)N)NC(=O)[C@H](CO)NC1=O)C(=O)N[C@@H](CC(C)C)C(=O)N[C@@H](CCC(=O)O)C(=O)N1CCC[C@H]1C(=O)N3)NC(=O)[C@H](CCCCN)NC(=O)CNC(=O)[C@H](CC(N)=O)NC(=O)[C@H](CCSC)NC2=O` [K27R] (H-GVIINVKCKISRQCLEPCKKAGMRFGRCMNGKCHCTPK-OH; disulfide 8-28, 14-33, 18-35), the pIC50 is 7.82 in assay [1] (setting [3]) and 7.97 in assay [2] (setting [4]).
Turning to `CC[C@H](C)[C@@H]1NC(=O)[C@H](CCCCN)NC(=O)[C@@H](NC(=O)[C@H](CCCCN)NC(=O)[C@@H](NC(=O)[C@H](CC(N)=O)NC(=O)[C@@H](NC(=O)[C@@H](NC(=O)[C@@H](NC(=O)CN)C(C)C)[C@@H](C)CC)[C@@H](C)CC)C(C)C)CSSC[C@@H]2NC(=O)[C@H](CCCCN)NC(=O)CNC(=O)[C@H](Cc3ccccc3)NC(=O)[C@H](Cc3cccc4ccccc34)NC(=O)[C@H](CCSC)NC(=O)CNC(=O)[C@H](C)NC(=O)[C@H](CCCCN)NC(=O)[C@H](CCCCN)NC(=O)[C@@H]3CSSC[C@@H](C(=O)N[C@H](C(=O)N4CCC[C@H]4C(=O)N[C@@H](CCCCN)C(=O)O)[C@@H](C)O)NC(=O)[C@H](Cc4c[nH]cn4)NC(=O)[C@H](CSSC[C@H](NC(=O)[C@H](CCC(N)=O)NC(=O)[C@H](CCCNC(=N)N)NC(=O)[C@H](CO)NC1=O)C(=O)N[C@@H](CC(C)C)C(=O)N[C@@H](CCC(=O)O)C(=O)N1CCC[C@H]1C(=O)N3)NC(=O)[C@H](CCCCN)NC(=O)CNC(=O)[C@H](CC(N)=O)NC(=O)[C@H](CCSC)NC2=O` [R24Nal] (H-GVIINVKCKISRQCLEPCKKAGM[1Nal]FGKCMNGKCHCTPK-OH; disulfide 8-28, 14-33, 18-35), the pIC50 is 9.53 in assay [1] (setting [3]) and 9.09 in assay [2] (setting [4]).
Consider “GVIINVKCKISAQCLEPCKKAGMRFGKCMNGKCHCTPK [Ala-12 (SEQ ID No: 1410)]”, for which the pIC50 in assay [1] (read-out: Average IC50 IL-2) is 9.91; in assay [2] (read-out: Average IC50 IFNg), 9.81.
Take “E16K, K20D, T36Y (GVIINVKCKISRQCLKPCKDAGMRFGKCMNGKCHCYPK; Definition of Artificial Sequence: Synthetic peptide)”: the figures for the pIC50 in assay [1] (read-out: WB/IL-2 (IC50)) and in assay [2] (read-out: WB/IFNg (IC50)) were 9.19 and 9.03, respectively.
`CC[C@H](C)[C@@H]1NC(=O)[C@H](CCCCN)NC(=O)[C@@H](NC(=O)[C@H](CCCCN)NC(=O)[C@@H](NC(=O)[C@H](CC(N)=O)NC(=O)[C@@H](NC(=O)[C@@H](NC(=O)[C@@H](NC(=O)CN)C(C)C)[C@@H](C)CC)[C@@H](C)CC)C(C)C)CSSC[C@@H]2NC(=O)[C@H](CCCCN)NC(=O)CNC(=O)[C@H](Cc3ccccc3)NC(=O)[C@H](CCCNC(=N)N)NC(=O)[C@H](CCSC)NC(=O)CNC(=O)[C@H](C)NC(=O)[C@H](CCCCN)NC(=O)[C@H](CCCCN)NC(=O)[C@@H]3CSSC[C@@H](C(=O)N[C@H](C(=O)N4CCC[C@H]4C(=O)N[C@@H](CCCCN)C(=O)O)[C@@H](C)O)NC(=O)[C@H](Cc4c[nH]cn4)NC(=O)[C@H](CSSC[C@H](NC(=O)[C@H](CCC(N)=O)NC(=O)[C@H](CCCNC(=N)N)NC(=O)[C@H](CO)NC1=O)C(=O)N[C@@H](Cc1cccc4ccccc14)C(=O)N[C@@H](CCC(=O)O)C(=O)N1CCC[C@H]1C(=O)N3)NC(=O)[C@H](CCCCN)NC(=O)CNC(=O)[C@H](CC(N)=O)NC(=O)[C@H](CCSC)NC2=O` [L15Nal] (H-GVIINVKCKISRQC[1Nal]EPCKKAGMRFGKCMNGKCHCTPK-OH; disulfide 8-28, 14-33, 18-35): the pIC50 was 9.45 in assay [1] (setting [3]) and 9.43 in assay [2] (setting [4]).
For “GVIINVKCKISRQCLEPCKKAGMRAGKCMNGKCHCTPK [Ala-25 (SEQ ID No: 1421)]”, the pIC50 in assay [1] (read-out: Average IC50 IL-2) and in assay [2] (read-out: Average IC50 IFNg) was 8.51 in each case.
As to `CC[C@H](C)[C@@H]1NC(=O)[C@H](Cc2cccc3ccccc23)NC(=O)[C@@H](NC(=O)[C@H](CCCCN)NC(=O)[C@@H](NC(=O)[C@H](CC(N)=O)NC(=O)[C@@H](NC(=O)[C@@H](NC(=O)[C@@H](NC(=O)CN)C(C)C)[C@@H](C)CC)[C@@H](C)CC)C(C)C)CSSC[C@@H]2NC(=O)[C@H](CCCCN)NC(=O)CNC(=O)[C@H](Cc3ccccc3)NC(=O)[C@H](CCCNC(=N)N)NC(=O)[C@H](CCSC)NC(=O)CNC(=O)[C@H](C)NC(=O)[C@H](CCCCN)NC(=O)[C@H](CCCCN)NC(=O)[C@@H]3CSSC[C@@H](C(=O)N[C@H](C(=O)N4CCC[C@H]4C(=O)N[C@@H](CCCCN)C(=O)O)[C@@H](C)O)NC(=O)[C@H](Cc4c[nH]cn4)NC(=O)[C@H](CSSC[C@H](NC(=O)[C@H](CCC(N)=O)NC(=O)[C@H](CCCNC(=N)N)NC(=O)[C@H](CO)NC1=O)C(=O)N[C@@H](CC(C)C)C(=O)N[C@@H](CCC(=O)O)C(=O)N1CCC[C@H]1C(=O)N3)NC(=O)[C@H](CCCCN)NC(=O)CNC(=O)[C@H](CC(N)=O)NC(=O)[C@H](CCSC)NC2=O` [K9Nal] (H-GVIINVKC[1Nal]ISRQCLEPCKKAGMRFGKCMNGKCHCTPK-OH; disulfide 8-28, 14-33, 18-35), the pIC50 in assay [1] (setting [3]) was 8.97; in assay [2] (setting [4]), 8.91.
Consider `CC[C@H](C)[C@@H]1NC(=O)[C@H](CCCCN)NC(=O)[C@@H](NC(=O)[C@H](CCCCN)NC(=O)[C@@H](NC(=O)[C@H](CC(N)=O)NC(=O)[C@@H](NC(=O)[C@@H](NC(=O)[C@@H](NC(=O)CN)C(C)C)[C@@H](C)CC)[C@@H](C)CC)C(C)C)CSSC[C@@H]2NC(=O)[C@H](CCCCN)NC(=O)CNC(=O)[C@H](Cc3ccccc3)NC(=O)[C@H](CCCNC(=N)N)NC(=O)[C@H](CCSC)NC(=O)CNC(=O)[C@H](C)NC(=O)[C@H](CCCCN)NC(=O)[C@H](CCCCN)NC(=O)[C@@H]3CSSC[C@@H](C(=O)N[C@H](C(=O)N4CCC[C@H]4C(=O)N[C@@H](CCCCN)C(=O)O)[C@@H](C)O)NC(=O)[C@H](Cc4c[nH]cn4)NC(=O)[C@H](CSSC[C@H](NC(=O)[C@H](CCC(N)=O)NC(=O)[C@H](CCCNC(=N)N)NC(=O)[C@H](CO)NC1=O)C(=O)N[C@@H](CC(C)C)C(=O)N[C@@H](CCCNC(=N)N)C(=O)N1CCC[C@H]1C(=O)N3)NC(=O)[C@H](CCCCN)NC(=O)CNC(=O)[C@H](CC(N)=O)NC(=O)[C@H](CCSC)NC2=O` [E16R] (H-GVIINVKCKISRQCLRPCKKAGMRFGKCMNGKCHCTPK-OH; disulfide 8-28, 14-33, 18-35), for which the pIC50 in assay [1] (setting [3]) is 9.25; in assay [2] (setting [4]), 9.34.
For `CC[C@H](C)[C@@H]1NC(=O)[C@H](CCCCN)NC(=O)[C@@H](NC(=O)[C@H](CCCCN)NC(=O)[C@@H](NC(=O)[C@H](CC(N)=O)NC(=O)[C@@H](NC(=O)[C@@H](NC(=O)[C@@H](NC(=O)CN)C(C)C)[C@@H](C)CC)[C@@H](C)CC)C(C)C)CSSC[C@@H]2NC(=O)[C@H](CCCCN)NC(=O)CNC(=O)[C@H](Cc3ccccc3)NC(=O)[C@H](CCCNC(=N)N)NC(=O)[C@H](CCSC)NC(=O)CNC(=O)[C@H](C)NC(=O)[C@H](CCCCN)NC(=O)[C@H](CCCCN)NC(=O)[C@@H]3CSSC[C@@H](C(=O)N[C@@H](CCCNC(=N)N)C(=O)N4CCC[C@H]4C(=O)N[C@@H](CCCCN)C(=O)O)NC(=O)[C@H](Cc4c[nH]cn4)NC(=O)[C@H](CSSC[C@H](NC(=O)[C@H](CCC(N)=O)NC(=O)[C@H](CCCNC(=N)N)NC(=O)[C@H](CO)NC1=O)C(=O)N[C@@H](CC(C)C)C(=O)N[C@@H](CCC(=O)O)C(=O)N1CCC[C@H]1C(=O)N3)NC(=O)[C@H](CCCCN)NC(=O)CNC(=O)[C@H](CC(N)=O)NC(=O)[C@H](CCSC)NC2=O` [T36R] (H-GVIINVKCKISRQCLEPCKKAGMRFGKCMNGKCHCRPK-OH; disulfide 8-28, 14-33, 18-35), the pIC50 in assay [1] (setting [3]) is 8.01; in assay [2] (setting [4]) it was 8.00.
